On to `CCCc1c(C(=O)CC(C)OC)c2ccc(C(N)=O)cc2n1Cc1cc2c(cc1Cl)OCO2` (stereo unspecified), for which the melting point (in general, the temperature, or range, at which the solid turns liquid) is 190 to 192 °C.

In the case of `CCN(CCOC)C(=O)C1=CC(c2ccccc2)C(=O)n2cc3cccc(Cl)c3c21` (stereo unspecified), the melting point fell in the range of 146 to 148 °C.

In turn, `Cc1ccc(Cl)cc1NC(=O)NCC1(c2ccccc2)CCCCC1` registered a melting point of 200 to 202 °C.

`C=CCCn1ncc2c(N)c(C(=O)OCC=C)c(C)nc21` showed a melting point of 64 to 64.5 °C.

`ClCCOc1ccc(/C=C/c2nc3ccccc3o2)cc1` displayed a melting point of 88 to 90 °C.

`Cc1cc(C)c2c(c1)c(-c1ccccc1Cl)c(C(=O)O)c(=O)n2C` showed a melting point of 162 to 163 °C.

Take `COc1ccc(S(=O)(=O)Nc2ccc(-c3ccccc3)cc2)cc1OC`: the melting point lay in the range of 171 to 173 °C.

`CCOC(=O)NC(=O)N1CC1C#N` (stereo unspecified) gave a melting point of 108 to 110 °C.

Regarding `CC(=O)Nc1ccc2c(c1)c(-c1cc3cccnc3[nH]1)cn2C`, the melting point was 220 to 221 °C.

Turning to `O=C1NCCc2c(Cl)cccc21`, the melting point lay within 143 to 148 °C.

For `O=C1CCCN1C(=O)Oc1ccccc1`, the melting point lay in the range of 120 to 122 °C.

For `O[C@@H]1CN=C(c2ccc(Cl)c(Cl)c2)O[C@H]1c1ccccc1` (racemic), the melting point came out at 158 °C.

Compound `N#Cc1cc(I)ccc1N` gave a melting point of 85 to 86 °C.

In turn, `COc1ccc(Cl)cc1C(=O)NCCc1ccc(CCCCCCCC(=O)O)cc1` showed a melting point of 103 to 106 °C.

Turning to `C=C(C)C(=O)OCCOc1ccc(N=Nc2ccc(C#N)cc2)cc1C#N`, the melting point is 110 °C.

As for `CC(C)C(=O)N[C@H]1CC[C@H](CCN2CCN(c3nccc4c3CCO4)CC2)CC1`, the melting point came to 219 °C.

In turn, `Cc1ccc(C)c(OCc2ccccc2CCl)c1` showed a melting point of 46.5 to 48.5 °C.

As for `OC1(C23CC4CC(CC(C4)C2)C3)CCCCC1`, the melting point lay within 166 to 168 °C.

For `O=C(NCCN1CCCCC1)c1nc(NCC(c2ccccc2)c2ccccc2)c2nc[nH]c2n1`, the melting point is 222 °C.

Regarding `COc1ccc(-c2cc3cc(OC)cc(C=C(Cl)Cl)c3o2)cc1`, the melting point was in the range of 129 to 131 °C.

In turn, `CC(N)C(=O)N1C(C(=O)O)CC2CCCCC21` (stereo unspecified) showed a melting point of 163 to 165 °C.

The compound `CC(C)Cc1ccc(N)cc1C#N` returned a melting point of 68 °C.

In turn, `CC(=O)Nc1ccc(S(=O)(=O)Nc2ccn(C3CC3)c(=O)n2)cc1` showed a melting point of 139 to 143 °C.

In the case of `Nc1ncccc1-c1nc2cc(C3CCCC3)cnc2n1-c1ccc(CNC(=O)c2ccccc2)cc1`, the melting point was in the range of 210 to 211 °C.

In turn, `O=C(Cc1ccccc1)c1cccc(OCc2ccccc2)c1` showed a melting point of 58 to 60 °C.

For `O=C1CCCCC1c1c[nH]c2ccccc12` (stereo unspecified), the melting point was in the range of 122 to 124 °C.

`CCCc1ncc(C(=O)OCC)c(NCc2ccc(-c3ccccc3-c3nnn[nH]3)cc2)n1` showed a melting point of 146 to 147 °C.

The compound `CC12CCC3(CC1CCC1C2CCC2(C)C1CC(O)C2NC=O)OCCO3` (stereo unspecified) displayed a melting point of 277 to 280 °C.

`O=C(CCCN1CCC(NC(=O)c2ccccc2)CC1)c1ccc(F)cc1` had a melting point of 161 to 162 °C.

For the compound `CN1C(=O)c2cscc2Nc2ccccc21`, the melting point fell in the range of 195 to 198 °C.

The compound `CCOc1cc(OCCCc2cn(-c3ccccn3)nc2OCC)ccc1CCC(=O)O` gave a melting point of 110 to 111 °C.

`CC1CCN(c2c(F)cc3c(=O)c(C(=O)O)cn4c3c2CCC4C)CC1` (stereo unspecified) showed a melting point of 266 to 268 °C.

Turning to `CCc1ccc(SC(=NNc2ccc(OC)cc2)C(C)=O)cc1`, the melting point lay within 106 to 108 °C.

`CCCCOc1ccc(C=CC(=O)NCCN(O)C(N)=O)cc1` registered a melting point of 127 to 129 °C.

`C/C(=C\CCC1(C)CCc2cc(O[Si](C)(C)C(C)(C)C)c(C)c(C)c2O1)CCl` (stereo unspecified) had a melting point of 56 to 58 °C.

The compound `CC1(c2ccc(F)c(S(N)(=O)=O)c2)OCCO1` came in with a melting point of 149 to 150 °C.

The compound `CNc1nc(SC)ncc1CO` returned a melting point of 155 to 157 °C.

`CC(=NOCCOc1ccc(CC2SC(=O)NC2=O)cc1)c1ccc(-c2ccccc2)nc1` (stereo unspecified) displayed a melting point of 186 to 187 °C.

In the case of `CCCCCC(=O)NC[C@H](CC(C)C)NC(=O)[C@H]1O[C@@H]1C(=O)OCC`, the melting point is 120 to 121 °C.

`CCCC1(CC(=O)OC)CCCc2c1[nH]c1cc(Br)ccc21` (stereo unspecified) had a melting point of 198 °C.

Compound `O=C(O)Cn1c(=O)c(=O)[nH]c2cc(Cl)ccc21` had a melting point of 318 to 319 °C.

In turn, `CCOC(=O)CCCCCCCn1cnc(-c2ccc(O)cc2)c1-c1ccc(O)cc1` showed a melting point of 186 to 187 °C.

As for `CCOP(=O)(OCC)N1CCN(c2cc3c(cc2F)c(=O)c(C(=O)OCCOC)cn3C2CC2)CC1`, the melting point is 138 to 141 °C.

`O=C(O)CCCCCCCCCCCCCCCCCCCN1C(=O)C=CC1=O`: the melting point lay within 104 to 106 °C.

Regarding `N#CC(=Cc1ccc(O)c(O)c1)C(=O)O`, the melting point was determined as 240 °C.

Take `CCc1sc2ncccc2c1S(=O)(=O)Nc1onc(C)c1Cl`: the melting point lay within 152 to 154 °C.

For `Cc1cccc(C)c1NC(=O)CCCc1cccnc1`, the melting point was 98 to 99 °C.

As to `Cc1cn(-c2ccc(NC(=O)c3ccc(C)c(C#Cc4cnc(NC5CC5)nc4)c3)cc2C(F)(F)F)cn1`, the melting point was in the range of 131 to 133 °C.

In the case of `CC(=NNCCCC(C)C)C(=O)O`, the melting point fell in the range of 118 to 125 °C.

Take `COc1ccccc1CCNC(=S)Nc1nc2ccccc2[nH]1`: the melting point lay in the range of 176 to 184 °C.

Compound `CC(=O)OCc1c(Br)cccc1N1CCc2c(sc3c2CC(C)(C)C3)C1=O` showed a melting point of 126 to 128 °C.

`Oc1ccc2c(c1)CCCC(c1ccccc1)=C2c1ccc(OCCCl)cc1` gave a melting point of 238 to 240 °C.

`CNC1=NS(=O)(=O)N=C1NCCSCc1cnc(CN(C)C)s1` gave a melting point of 170 to 172 °C.

Regarding `Nc1nnc2c3c(c(Cl)nn12)CCCC3`, the melting point was 224 to 225 °C.

In the case of `COc1ccc(CCNC[C@H](O)COc2ccc(-c3nc(C(C)=O)c[nH]3)cc2)cc1OC`, the melting point lay within 138 to 142 °C.

With `COc1c(CBr)nc2sc(Cl)cn2c1=O`, the melting point was 160 to 162 °C.

`O=C(c1ccc(-c2ccncc2)cc1)N1CCN(S(=O)(=O)c2nc3ccc(Cl)cc3[nH]2)CC1` came in with a melting point of 242 to 244 °C.

Regarding `CCC(=O)NCCC1=CCc2cnc3c(c21)CCO3`, the melting point was in the range of 111 to 112 °C.

With `N#CNC(=N)CCCSc1nccc(NC(N)=NCC(F)(F)F)n1`, the melting point worked out at 224 °C.

The compound `Fc1ccc(N2CC3CCC2CN3Cc2ccccc2)cc1` (stereo unspecified) had a melting point of 74 to 76 °C.

`CC(=O)c1cc(CS(C)(=O)=O)ccc1O`: the melting point fell in the range of 142 to 144 °C.

For the compound `O=c1n(-c2cc(OCCCl)c(Cl)cc2Cl)nc2n1CCCC2`, the melting point fell in the range of 148 to 150 °C.

As to `Cc1nc2ccc(-c3ccc(OCC4(NC(=O)OCc5ccccc5)COC4)cc3)nn2c1-c1cnc(N)c(C(F)(F)F)c1`, the melting point is 209 to 212 °C.

In turn, `CCOC1CCC2(CC1)NC(=O)C(c1cc(Br)ccc1C)=C2O` (stereo unspecified) had a melting point of 138 °C.

On to `Cc1ccc(N2CN(c3ccccc3)C3=NN=CC3=C2Cl)cc1`, for which the melting point fell in the range of 177 to 179 °C.

For `CCOC(=O)C1=C(COCC(C)(O)c2ncc[nH]2)NC(C)=C(C(=O)OC)C1c1cccc(Cl)c1Cl` (stereo unspecified), the melting point turned out to be 183 °C.

These data come from a melting point compilation (Tetko et al.; mined from patent text by program, amines drawn as free bases though some values may be those of a salt).
